From PMC12677843, “Multidisciplinary Preclinical Investigations on Ferrocenyl, Ruthenocenyl, and Benzyl Derivatives of Niridazole as New Drug Candidates against Schistosomiasis” (Chemmedchem, 2025) come the findings set out here.

Series [1] concerns juvenile S. mansoni. In words: In vitro drug sensitivity assay on juvenile S. mansoni. It is filed as cell-based, Schistosoma mansoni. The settings on record: 72 h incubation, 37 °C, 5% CO2. As for the experimental part: Juvenile worms were gained through cultivation of NTS as previously described. 10 In short, NTS were obtained as described above, then directly after the mechanical transformation process the newly transformed schistosomula were placed in a special culturing medium. The culture medium consists of Panserin 401, w: L-Glutamine, serum free all-round medium (Pan Biotech, Aidenbach, Germany) supplemented with 20 % human serum and 500 U/mL penicillin, […] streptomycin (LuBioScience, Switzerland). 96-well transparent polystyrene flat bottom plates were used for the in vitro growth procedure, with 40 to 60 NTS per well in 100 µL culture medium. The bordering wells of the plate were filled solely with medium to counteract evaporation and to keep the humidity as steady as possible. The plates were incubated for 21 days at 5 % CO2 and at 37 °C, with regular medium changes every 3 to 4 days. After the 21 days culturing period, the schistosomulae developed into juveniles. For the drug sensitivity assay, juvenile worms were incubated over 72 h (5 % CO 2 and 37 °C) with the test compound in the same medium, as used for the culturing process. In a 96-well plate, 250 µL medium containing the test compound and six juvenile worms, ideally of both sexes were placed in each well. All compounds were tested twice independently at 50, 10, 5 and 1 µM in duplicates. The viability of the worms was evaluated microscopically after 24, 48 and 72 h of continuous drug exposure using the same phenotypic screening method as described before. […]

Series [2] has as its system adult S. mansoni. In words: In vitro drug sensitivity assay on adult S. mansoni (microscopic viability scoring). In kind it is cell-based, Schistosoma mansoni. The settings on record: for mean drug effect at 10 µM on adult S. mansoni, 24 h / mean drug effect at 10 µM on adult S. mansoni, 48 h / mean drug effect at 10 µM on adult S. mansoni, 72 h: in percentage of DMSO control; for drug effect at 50 µM on adult S. mansoni: 72 h incubation, normalized to DMSO control, active if ≥60%; for EC50: 37 °C, 5% CO2; for Fold activity of niridazole: potency on adult S. mansoni relative to niridazole, EC50 at 72 h. As for the experimental part: Figure 3 In vitro activity at 50 µM of the 12 compounds on adult S. mansoni. Adult schistosomes were incubated in culture media for 72 h at 37 °C and 5% CO2 with either compound (50 µM) or a DMSO (0.5%) control. The viability of the worms was microscopically evaluated and scored (0—3, in 0.5 steps) every 24 h. Results are from two independent experiments, each performed in duplicate. Drug activities were normalized to the DMSO controls. Data represent mean ± SD in percentage of DMSO control. […]
In vitro evaluation on adult S. mansoni
After a week for acclimatization to the new environment with controlled conditions (temperature: 22 °C ± 2 °C, humidity: 50 % ± 10 %, 12:12 h light/dark photocycle), four-week-old female NMRI mice (Charles River, Sulzfeld, Germany) were subcutaneously infected with approximately 100 cercariae to establish the S. mansoni infection. In the S. mansoni infected mice the worms were allowed to develop for 7 weeks into the adult stage, before they were extracted from the mesenteric veins of the euthanized mice. The adult worms were placed into RPMI 1640 (Gibco, Waltham MA, USA) medium supplemented with 1 % penicillin/streptomycin mixture and 5 % iFCS at 37 °C and 5 % CO 2. The drug sensitivity assay was set up in a 24-well plate with two wells containing each two pairs of S. mansoni worms per compound and concentration.
The final volume per well was 2 mL, containing the culture medium and the corresponding amount of drug dissolved in DMSO. The maximum concentration tested was 50 µM, corresponding to 0.5 % DMSO, to which all the other wells were adapted […]
to, so that all test concentrations contained always the same amount of DMSO.
Additionally, 2 wells with negative controls containing only DMSO and the culture medium were included. After an incubation period of 72 h at 37 °C and 5 % CO 2, the worms were microscopically evaluated. The drug effect was determined 24, 48 and 72 h post-exposure based on the phenotype of the adult worms, using a viability scale ranging from three referring to viable, motile worms with no change in their tegument to zero standing for the death of the worms.
All described in vitro studies with mice involved, were conducted at the Swiss Tropical and Public Health Institute, first in Basel, later in Allschwil, and had the approval by the corresponding veterinary authorities of the Canton Basel-Stadt (permit no. 2070)

For series [3], the system named is S. mansoni newly transformed schistosomula (NTS). In words: In vitro evaluation on newly transformed schistosomula (NTS). The settings on record: for EC50: 72 h incubation, 37 °C, 5% CO2; for drug effect at 50 µM on S. mansoni NTS: highest tested concentration 50 µM. In kind it is cell-based, Schistosoma mansoni. As for the experimental part:
2. Experimental section for biological experiments
Stock solutions of the test compounds
Stock solution of a concentration of 10 mM in pure DMSO (Sigma-Aldrich, Switzerland) were prepared of the 12 compounds, these stock solutions were used for all in vitro evaluations from activity tests in S. mansoni to the cytotoxic determinations in HUH7 hepatocyte-derived carcinoma cells, and in SH-SY5Y neuroblastoma cells.
The solutions were thoroughly vortexed and sonicated to enable a good dissolution of the compounds and homogenous stock solutions.
2.1 In vitro evaluations in S. mansoni
In vitro evaluation on newly transformed schistosomula (NTS)
To obtain newly transformed schistosomula (NTS) the lifecycle of S. mansoni (strain originates from West Africa, Liberia) is maintained at the Swiss Tropical and Public Health Institute (Swiss TPH). As previously described, cercariae are collected from infected Biomphalaria glabrata snails and then mechanically transformed into NTS. 8 After HBSS (Gibco, Waltham MA, USA) washing to get rid of the detached tails, the NTS were kept overnight (min. 12 h, max. 24 h) in culture medium at 37 °C and 5 % CO2 to complete their transformation process, before the drug sensitivity assay was started. The drug assays were performed in the same culture medium consisting of medium M199 (Gibco, Waltham MA, USA) supplemented with 5 % v/v inactivated fetal calf serum (iFCS; Bioconcept AG, Allschwil, Switzerland), 1% antibiotics mixture developed by Mäser et al., 9 and 1 % penicillin 10,000 U/mL, and streptomycin 10 mg/mL solution (Sigma-Aldrich, Buchs, Switzerland). The assay was performed in a 96-well plate, with 30−40 NTS per well in a final volume of 250 μL. NTS incubated in culture medium containing 0.5 % DMSO but no drug served as negative controls.
Microscopic evaluation was performed after 24, 48 and 72 h of incubation of the parasites at 37 °C and 5 % CO 2. Their overall viability was scored from 0 (death) to 3 (full viability) by a phenotypic screening method based on their motility, morphology, […]
and granularity. […]

The nature of series [4]: Stability in DMSO-d6 monitored by 1H NMR. In kind it is physicochemical. The settings on record: room temperature, 0, 6, 24, 30 and 48 h. The method, then: Stability is a key factor that needs to be investigated in medicinal chemistry, particularly with metal complexes.^[ [44] ^] We randomly chose four niridazole derivatives that we dissolved in DMSO‐d 6 (A3, B1, C2, and D1). We then monitored by ^1H NMR spectroscopy any change in the spectra after 0, 6, 24, 30, and 48 h at room temperature. No shifted peaks or new peaks were found for all the tested compounds over 2 days, showing that they are stable in DMSO‐d 6. The NMR spectra of these studies can be found in the Supporting Information (Figure S32–S35).
Figure S31 DEPT spectrum of C2
1H NMR spectra for stability
Preparation of the control samples for 1H NMR analysis: Compounds B1, D1, A3 and
C2 were dissolved in DMSO- d6. Compound A2 was dissolved in DMSO- d6 with D2O
(4:1, v/v). NMR spectra were recorded in deuterated solvents on Bruker Avance-400
in the room temperature for 0, 6, 24, 30 and 48 hours or 0, 3, 6 and 24 hours. […]

Where [5] appears, read: 24 h drug exposure, read-out: EC50 on adult S. mansoni, 24 h.
Setting [6] is: 72 h drug exposure, read-out: EC50 on adult S. mansoni, 72 h.
Setting [7] is: Schistosoma mansoni, 72 h, 72 h drug exposure, read-out: EC50 on adult S. mansoni, 72 h.
[8] abbreviates: 48 h drug exposure, read-out: EC50 on adult S. mansoni, 48 h.

The structures appear in SMILES notation. Where two headings read alike, the source gives them in different places.

For `O=C1N(C[c-]2cccc2)CCN1c1ncc([N+](=O)[O-])s1.[Ru+2].c1cc[cH-]c1` [Compound B2], the EC50 in series [1] was 8 µM; in series [2] (setting [5]), 38.1 µM; in series [2] (setting [6]) it was 3.2 µM; in series [3], greater than 50 µM. The “mean drug effect at 10 µM on adult S. mansoni, 24 h” value (from here on “mean drug effect at 10 µM … 24 h”) in series [2] (24 h) was 31.28%. Further, the “mean drug effect at 10 µM on adult S. mansoni, 48 h” value (shortened to “mean drug effect at 10 µM … 48 h”) in series [2] (48 h) was found to be 44.99%. The “mean drug effect at 10 µM on adult S. mansoni, 72 h” value (“mean drug effect at 10 µM … 72 h” below) in series [2] (72 h) is 65.57%. Besides, the “drug effect at 50 µM on adult S. mansoni” value in series [2] is “less active than niridazole”. In series [2], the “Fold activity of niridazole” value was 1.8.

In the case of `O=C1N(CCCCCC[c-]2cccc2)CCN1c1ncc([N+](=O)[O-])s1.[Fe+2].c1cc[cH-]c1` [Compound A4], the “drug effect at 50 µM on adult S. mansoni” value in series [2] was “No drug effect”. For the same compound, the EC50 in series [2] (setting [6]) and in series [3] was greater than 50 µM each time. Besides, in series [3], the “drug effect at 50 µM on S. mansoni NTS” value is “No drug effect”.

In the case of `Nc1ncc([N+](=O)[O-])s1` [Compound 2], in series [2], the “drug effect at 50 µM on adult S. mansoni” value is “No drug effect”. Further, the EC50 in series [2] (setting [7]) and in series [3] (Schistosoma mansoni) was greater than 50 µM throughout. The “drug effect at 50 µM on S. mansoni NTS” value in series [3] is “No drug effect”.

With `O=C1N(Cc2ccccc2)CCN1c1ncc([N+](=O)[O-])s1` [Compound C2], the “drug effect at 50 µM on adult S. mansoni” value in series [2] is listed as “No drug effect”. Further, the EC50 in series [2] (setting [7]) and in series [3] (Schistosoma mansoni) was greater than 50 µM throughout. Also, in series [4], the “stability in DMSO-d6 (1H NMR)” value is listed as “stable”. Also, the “drug effect at 50 µM on S. mansoni NTS” value in series [3] is listed as “No drug effect”.

Regarding `O=C(Nc1ncc([N+](=O)[O-])s1)C12CC3CC(CC(C3)C1)C2` [Compound D1], the EC50 in series [1] (Schistosoma mansoni) is 29.2 µM; in series [2] (setting [5]), 9.8 µM; in series [2] (Schistosoma mansoni, 24 h, 24 h drug exposure, read-out: EC50 on adult S. mansoni, 24 h), less than 10 µM; in series [2] (Schistosoma mansoni, 48 h, 48 h drug exposure, read-out: EC50 on adult S. mansoni, 48 h), 4.2 µM; in series [2] (setting [7]), 3.7 µM; in series [3] (Schistosoma mansoni), 7.9 µM. In series [2] (24 h), the “mean drug effect at 10 µM … 24 h” value turned out to be 55.18%. The “mean drug effect at 10 µM … 48 h” value in series [2] (48 h) is reported as 66.75%. In addition, the “mean drug effect at 10 µM … 72 h” value in series [2] (72 h) worked out at 65.76%. Further, the “Fold activity of niridazole” value in series [2] is recorded as 1.5. Besides, the “stability in DMSO-d6 (1H NMR)” value in series [4] was “stable”.

As to `O=C1N(C[c-]2cccc2)CCN1c1ncc([N+](=O)[O-])s1.[Fe+2].c1cc[cH-]c1` [Compound A3], the EC50 in series [1] was 5.7 µM; in series [2] (setting [5]) it was 50.5 µM; in series [2] (setting [8]) it was 9.7 µM; in series [2] (setting [6]) it was 3.5 µM; in series [3], greater than 50 µM. For the same compound, in series [2] (24 h), the “mean drug effect at 10 µM … 24 h” value is reported as 30.75%. In addition, the “mean drug effect at 10 µM … 48 h” value in series [2] (48 h) was determined as 44.28%. In addition, the “mean drug effect at 10 µM … 72 h” value in series [2] (72 h) is recorded as 66.09%. The “drug effect at 50 µM on adult S. mansoni” value in series [2] is “less active than niridazole”. Further, the “Fold activity of niridazole” value in series [2] is 1.6. Further, the “stability in DMSO-d6 (1H NMR)” value in series [4] is recorded as “stable”.

For `O=C(Nc1ncc([N+](=O)[O-])s1)[c-]1cccc1.[Ru+2].c1cc[cH-]c1` [Compound B1], the EC50 in series [1] is greater than 50 µM; in series [2] (setting [6]), 6.9 µM; in series [3] it was greater than 50 µM. Moreover, the “mean drug effect at 10 µM … 24 h” value in series [2] (24 h) is given as 45.53%. Also, in series [2] (48 h), the “mean drug effect at 10 µM … 48 h” value is 44.35%. Also, the “mean drug effect at 10 µM … 72 h” value in series [2] (72 h) is on record as 57.20%. The “drug effect at 50 µM on adult S. mansoni” value in series [2] is on record as “less active than niridazole”. Also, the “stability in DMSO-d6 (1H NMR)” value in series [4] is on record as “stable”.

In the case of `C=CC([c-]1cccc1)N1CCN(c2ncc([N+](=O)[O-])s2)C1=O.[Fe+2].c1cc[cH-]c1` (racemic) [Compound A5], the EC50 is 12.2 µM in series [1]; greater than 50 µM in series [2] (setting [5]); 5.3 µM in series [2] (setting [8]); 1.5 µM in series [2] (setting [6]); greater than 50 µM in series [3]. Moreover, the “mean drug effect at 10 µM … 24 h” value in series [2] (24 h) amounted to 36.19%. Besides, in series [2] (48 h), the “mean drug effect at 10 µM … 48 h” value is on record as 57.59%. The “Fold activity of niridazole” value in series [2] was 3.8.

One may read the EC50 as the midpoint of the concentration-response curve.
